Results reported in PubChem BioAssay (NCI).
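48-hour exposure; five concentrations; linearly interpolated endpoints. GI50: concentration for 50% inhibition of growth. At the TGI there is no net growth.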 Where a SMILES comes first, the peptide text is derived from it. Bridges are numbered along the chain shown (N, C = ends). Roman numbers before positions name the chains, in order. [ ]: non-standard residue; d: D form. The star is where a group is joined. Heptadecanoyl = CCCCCCCCCCCCCCCCC(=O)*; Phg = N[CH](C(=O)O)c1ccccc1

Assays:
Test in all cases: NCI anticancer screen, dose series, 48 h
HT29 colon = system: HT29 colon
MDA-MB-435 = system: MDA-MB-435
SF-268 CNS = system: SF-268 CNS
TK-10 renal = system: TK-10 renal
K-562 leukemia = system: K-562 leukemia
DU-145 prostate = system: DU-145 prostate
T-47D breast = system: T-47D breast
SNB-75 CNS = system: SNB-75 CNS
SK-MEL-28 melanoma = system: SK-MEL-28 melanoma
RPMI-8226 leukemia = system: RPMI-8226 leukemia

Row | SMILES | TGI (HT29 colon) [µM] | TGI (MDA-MB-435) [µM] | TGI (SF-268 CNS) [µM] | TGI (TK-10 renal) [µM] | TGI (K-562 leukemia) [µM] | TGI (DU-145 prostate) [µM] | TGI (T-47D breast) [µM] | TGI (SNB-75 CNS) [µM] | TGI (SK-MEL-28 melanoma) [µM] | TGI (RPMI-8226 leukemia) [µM] | GI50 (HT29 colon) [µM] | GI50 (MDA-MB-435) [µM] | GI50 (SF-268 CNS) [µM] | GI50 (TK-10 renal) [µM] | GI50 (K-562 leukemia) [µM] | GI50 (DU-145 prostate) [µM] | GI50 (T-47D breast) [µM] | GI50 (SNB-75 CNS) [µM] | GI50 (SK-MEL-28 melanoma) [µM] | GI50 (RPMI-8226 leukemia) [µM]
1 | C/C(=C\c1ccc2c(c1)OCO2)[N+](=O)[O-] | 7.21 | 5.34 | 10.7 | 8.63 | > 100 | 8.05 | 5.14 | 88.2 | 6.02 | > 100 | – | – | – | – | – | – | – | – | – | –
2 | C(=N/Nc1ccccn1)/c1cccnc1 | > 100 | > 100 | > 100 | > 100 | > 100 | > 100 | > 100 | > 100 | > 100 | > 100 | – | – | – | – | – | – | – | – | – | –
3 | CCCCCCCCCCCCCCCCC(=O)N1CCCC1C(=O)NCC(=O)NC(C(=O)N1CCCC1C(=O)NC(CO)C(=O)NC(Cc1ccc(O)cc1)C(=O)NC(CCCCNC(=O)C1CCCN1C(=O)C(CCCCN)NC(=O)C(CCCCN)NC(=O)C(CCCCN)NC(=O)C(CCCNC(=N)N)NC(=O)C(CCCCN)NC(=O)C(N)C(C)C)C(=O)NC(CC(C)C)C(=O)NC(CCCNC(=N)N)C(=O)N1CCCC1C(=O)NCC(N)=O)c1ccccc1 (stereo not given) (I: Heptadecanoyl-PG[Phg]PSYKLRPG-NH2 / II: H-VKRKKKP; amide I:7-II:C; configuration not given here) | > 100 | 83.9 | > 100 | 66.6 | 86.8 | 61.5 | 70.7 | > 100 | > 100 | 35.3 | 29.6 | 18.9 | 15 | 26.5 | 10.2 | 24.6 | 5.38 | 54.2 | 19.5 | 13.5
4 | CN(C)C(=S)SCc1ccccc1 | > 100 | > 100 | > 100 | > 100 | – | > 100 | 60.6 | 70.3 | > 100 | – | – | – | – | – | – | – | – | – | – | –
5 | CCOC(=O)c1cc(Cl)ccc1OC(N)=O | > 100 | – | > 100 | – | > 100 | – | – | > 100 | > 100 | > 100 | – | – | – | – | – | – | – | – | – | –
6 | N#CC(C#N)=Cc1ccc(-c2ccc(-c3nc4ccccc4s3)cc2)s1 | > 100 | 64.5 | > 100 | 47.4 | 57.4 | 44.8 | 73.8 | > 100 | > 100 | – | 29.7 | 25.5 | 25.5 | 22.7 | 17.8 | 17.7 | 18.2 | 37.5 | 37.5 | –
7 | Nc1nc(Cl)nc2c1ncn2C1CCC(CO)O1 (stereo not given) | > 100 | > 100 | – | > 100 | – | > 100 | > 100 | > 100 | > 100 | > 100 | – | – | – | – | – | – | – | – | – | –
8 | Cc1cccc(C(O)c2ccccn2)c1O (stereo not given) | > 100 | > 100 | > 100 | > 100 | > 100 | > 100 | > 100 | > 100 | > 100 | > 100 | – | – | – | – | – | – | – | – | – | –
